From patent publication US8865222B2, “Beta-casein assemblies for enrichment of food and beverages and methods of preparation thereof” (Technion Research and Development Foundation Ltd., priority 2008, dated 2014)

Experiments:
Type in all cases: physicochemical
[1] = Visual comparison of vitamin D solubilization, clarity and precipitation with and without beta-casein
[2] = Vitamin D stability in aqueous solution, n-hexane extraction and Reversed Phase HPLC; conditions: pH 7 and pH 2.5, room temperature
Description: We further tested the stability of vitamin D:beta-casein solutions in both acidic and neutral pH environments. The solutions prepared were left for a week at room temperature and the sampling was made once a day (in the first three days of the experiment) and once every two days (toward the end of the experiment). Vitamin D was extracted by n-hexane from each sample and its amount was analyzed using Reversed Phase HPLC. The amount of the vitamin left was compared to the amount extracted at time 0. The experiment was performed at two different pH values (pH 7 and pH 2.5).

[3] = Turbidity (solution absorbance at 600 nm); conditions: vitamin D 82.5 μg/ml, in the absence of beta-casein, pH 7.0 and 2.5

C=C1CC[C@H](O)C/C1=C/C=C1\CCC[C@]2(C)[C@@H]([C@H](C)/C=C/[C@H](C)C(C)C)CC[C@@H]12 [vitamin D, ergocalciferol]
precipitation ([1]; PBS, in the absence of beta-casein, after a week): not observed | precipitation ([1]; PBS, in the presence of beta-casein, after a week): not observed | aggregation out of solution ([1]; lactic acid buffer pH 2.5, no beta-casein, after a week): white precipitation | precipitation ([1]; lactic acid buffer pH 2.5 with beta-casein 0.5% wt, molar ratio 2:1, after a week): not observed | vitamin D stability (amount left versus time 0) ([2]; in the presence of beta-casein, one week): degradation process is much slower | vitamin D stability (amount left versus time 0) ([2]; vitamin D alone, aqueous solution): degrades rapidly leaving almost no trace after only two days | turbidity [3]: sudden increase in turbidity value
